# Source: publication PMC8286840, “Identifying SARS-CoV-2 antiviral compounds by screening for small molecule inhibitors of Nsp3 papain-like protease” (Biochemical Journal, 2021)
# Where a name gives a salt, the structure may show the parent alone. Read-outs that look alike come from different tables or passages of the source.
# How the values were obtained:
# [1] = molecular target: T1, SARS-CoV-2 PLpro (nsp3 1564–1878) (Severe acute respiratory syndrome coronavirus 2, UniProt P0DTD1); test: biochemical; parameters: FRET-quenched peptide (Pro3) cleavage by PLpro, 10 min pre-incubation, slope over 20 min, normalised to no-compound control; conditions: high concentration screen, read-out: % of control remaining
# [2] = molecular target: T1, SARS-CoV-2 PLpro (nsp3 1564–1878); test: biochemical; parameters: FRET-quenched peptide (Pro3) cleavage by PLpro, 10 min pre-incubation, slope over 20 min, normalised to no-compound control; conditions: low concentration screen, read-out: % of control remaining
smiles,measurement,setting,value
CC1Cc2ccccc2N1NC(=O)c1ccc(Cl)c(S(N)(=O)=O)c1 (stereo not drawn) [Indapamide],remaining activity at 3.75 µM,[1]; Well no.=2224,103%
same,remaining activity at 1.25 µM,[2]; Well no.=2224,98.6%
CN[C@@H]1C[C@@H](c2ccc(Cl)c(Cl)c2)c2ccccc21 [Indatraline hydrochloride],remaining activity at 3.75 µM,[1]; Well no.=969,106%
same,remaining activity at 1.25 µM,[2]; Well no.=969,106%
O=C(Nc1ccncc1)C(=O)c1cn(Cc2ccc(Cl)cc2)c2ccccc12 [Indibulin],remaining activity at 3.75 µM,[1]; Well no.=6784,98.9%
same,remaining activity at 1.25 µM,[2]; Well no.=6784,98.6%
O=Nc1c(-c2c(O)[nH]c3ccccc23)[nH]c2ccccc12 [Indirubin-3'-oxime],remaining activity at 3.75 µM,[1]; Well no.=668,92.9%
same,remaining activity at 1.25 µM,[2]; Well no.=668,95.2%
O=Nc1c(-c2c(O)[nH]c3ccccc23)[nH]c2ccccc12 [Indirubin-3?-monoxime],remaining activity at 3.75 µM,[1]; Well no.=2358,106%
same,remaining activity at 1.25 µM,[2]; Well no.=2358,99.7%
O=C1Nc2ccccc2/C1=C1/Nc2ccccc2C1=O [Indirubin],remaining activity at 3.75 µM,[1]; Well no.=3771,101%
same,remaining activity at 1.25 µM,[2]; Well no.=3771,95.4%
NS(=O)(=O)c1ccc(S(=O)(=O)Nc2cccc3c(Cl)c[nH]c23)cc1 [Indisulam],remaining activity at 3.75 µM,[1]; Well no.=6068,95%
same,remaining activity at 1.25 µM,[2]; Well no.=6068,94.4%
O=C(O)Cc1c[nH]c2ccccc12 [Indole-3-acetic acid],remaining activity at 3.75 µM,[1]; Well no.=3667,104%
same,remaining activity at 1.25 µM,[2]; Well no.=3667,101%
O=C(O)CCCc1c[nH]c2ccccc12 [Indole-3-butyric acid],remaining activity at 3.75 µM,[1]; Well no.=3210,98.5%
same,remaining activity at 1.25 µM,[2]; Well no.=3210,91.8%
OCc1c[nH]c2ccccc12 [Indole-3-carbinol],remaining activity at 3.75 µM,[1]; Well no.=3524,102%
same,remaining activity at 1.25 µM,[2]; Well no.=3524,102%
O=C(O)c1c[nH]c2ccccc12 [Indole-3-carboxylic acid],remaining activity at 3.75 µM,[1]; Well no.=6741,97.8%
same,remaining activity at 1.25 µM,[2]; Well no.=6741,95.4%
COc1ccc2c(c1)c(CC(=O)N1CCOCC1)c(C)n2C(=O)c1ccc(Cl)cc1 [Indomethacin morpholinylamide],remaining activity at 3.75 µM,[1]; Well no.=971,89.7%
same,remaining activity at 1.25 µM,[2]; Well no.=971,94.6%
"CC1=C[C@]23C(=O)[C@@H](C=C(COC(=O)c4ccccc4)[C@@H](O)[C@]2(O)[C@H]1OC(=O)c1ccccc1)[C@H]1[C@@H](C[C@H]3C)C1(C)C [Ingenol 3,20-dibenzoate]",remaining activity at 3.75 µM,[1]; Well no.=3363,97.2%
same,remaining activity at 1.25 µM,[2]; Well no.=3363,95%
CC1=C[C@]23C(=O)[C@@H](C=C(CO)[C@@H](O)[C@]2(O)[C@H]1O)[C@H]1[C@@H](C[C@H]3C)C1(C)C [Ingenol],remaining activity at 3.75 µM,[1]; Well no.=3308,99.1%
same,remaining activity at 1.25 µM,[2]; Well no.=3308,98.5%
NC(=O)c1ccc(I)c([N+](=O)[O-])c1 [Iniparib (BSI-201)],remaining activity at 3.75 µM,[1]; Well no.=5011,103%
same,remaining activity at 1.25 µM,[2]; Well no.=5011,103%
O=c1[nH]cnc2c1ncn2[C@@H]1O[C@H](CO)[C@@H](O)[C@H]1O [Inosine],remaining activity at 3.75 µM,[1]; Well no.=5250,92.9%
same,remaining activity at 3.75 µM,[1]; Well no.=6147,100%
same,remaining activity at 3.75 µM,[1]; Well no.=8835,89.2%
same,remaining activity at 1.25 µM,[2]; Well no.=5250,92.9%
same,remaining activity at 1.25 µM,[2]; Well no.=6147,105%
same,remaining activity at 1.25 µM,[2]; Well no.=8835,92.8%
O[C@H]1[C@H](O)[C@@H](O)[C@H](O)[C@@H](O)[C@H]1O [Inositol],remaining activity at 3.75 µM,[1]; Well no.=5481,111%
same,remaining activity at 1.25 µM,[2]; Well no.=5481,111%
NC(=O)CI [Iodoacetamide],remaining activity at 3.75 µM,[1]; Well no.=430,96.4%
same,remaining activity at 1.25 µM,[2]; Well no.=430,104%
CC(C)NC(C)Cc1ccc(I)cc1 (stereo not drawn) [Iofetamine hydrochloride],remaining activity at 3.75 µM,[1]; Well no.=1017,105%
same,remaining activity at 1.25 µM,[2]; Well no.=1017,100%
CC(C)[N+]1(C)[C@@H]2CC[C@H]1C[C@@H](OC(=O)C(CO)c1ccccc1)C2 (stereo partly drawn) [Ipratropium bromide],remaining activity at 3.75 µM,[1]; Well no.=526,103%
same,remaining activity at 1.25 µM,[2]; Well no.=526,105%
CC(C)Oc1ccc2c(=O)c(-c3ccccc3)coc2c1 [Ipriflavone],remaining activity at 3.75 µM,[1]; Well no.=5242,97.9%
same,remaining activity at 1.25 µM,[2]; Well no.=5242,95.6%
CC(C)NNC(=O)c1ccncc1 [Iproniazid phosphate],remaining activity at 3.75 µM,[1]; Well no.=775,105%
same,remaining activity at 1.25 µM,[2]; Well no.=775,104%
CC(C)NNC(=O)c1ccncc1 [Iproniazid],remaining activity at 3.75 µM,[1]; Well no.=2048,96.1%
same,remaining activity at 1.25 µM,[2]; Well no.=2048,94.9%
CCCCC1=NC2(CCCC2)C(=O)N1Cc1ccc(-c2ccccc2-c2nnn[nH]2)cc1 [Irbesartan],remaining activity at 3.75 µM,[1]; Well no.=8251,105%
same,remaining activity at 1.25 µM,[2]; Well no.=8251,105%
CCc1c2c(nc3ccc(OC(=O)N4CCC(N5CCCCC5)CC4)cc13)-c1cc3c(c(=O)n1C2)COC(=O)[C@]3(O)CC [Irinotecan],remaining activity at 3.75 µM,[1]; Well no.=5099,98.8%
same,remaining activity at 1.25 µM,[2]; Well no.=5099,99.6%
Nc1nc(N)nc(-c2cc(Cl)ccc2Cl)n1 [Irsogladine],remaining activity at 3.75 µM,[1]; Well no.=2148,98.3%
same,remaining activity at 3.75 µM,[1]; Well no.=7629,88.4%
same,remaining activity at 1.25 µM,[2]; Well no.=2148,98.6%
same,remaining activity at 1.25 µM,[2]; Well no.=7629,94%
O=C1Nc2ccccc2C1=O [Isatin],remaining activity at 3.75 µM,[1]; Well no.=8350,95.1%
same,remaining activity at 1.25 µM,[2]; Well no.=8350,95.6%
C#C[C@]1(CO)O[C@@H](n2cnc3c(N)nc(F)nc32)C[C@@H]1O [Islatravir],remaining activity at 3.75 µM,[1]; Well no.=7822,105%
same,remaining activity at 1.25 µM,[2]; Well no.=7822,105%
C=C1C(=O)O[C@@H]2C[C@@]3(C)CCCC(=C)[C@@H]3C[C@H]12 [Isoalantolactone],remaining activity at 3.75 µM,[1]; Well no.=6728,93.6%
same,remaining activity at 1.25 µM,[2]; Well no.=6728,97.1%
CC(C)=CCc1c(O)ccc(C(=O)/C=C/c2ccc(O)cc2)c1O [Isobavachalcone],remaining activity at 3.75 µM,[1]; Well no.=6538,97.1%
same,remaining activity at 1.25 µM,[2]; Well no.=6538,102%
O=C1NC(=O)c2c1c1c3ccccc3[nH]c1n1cncc21 [Isogranulatimide],remaining activity at 3.75 µM,[1]; Well no.=2504,90.7%
same,remaining activity at 1.25 µM,[2]; Well no.=2504,94.2%
O=C(O)C1=CCNCC1 [Isoguvacine hydrochloride],remaining activity at 3.75 µM,[1]; Well no.=412,91.8%
same,remaining activity at 1.25 µM,[2]; Well no.=412,94.2%
O=C(/C=C/c1ccc(O)cc1)c1ccc(O)cc1O [Isoliquiritigenin],remaining activity at 3.75 µM,[1]; Well no.=963,101%
same,remaining activity at 1.25 µM,[2]; Well no.=963,99.7%
NNC(=O)c1ccncc1 [Isoniazid],remaining activity at 3.75 µM,[1]; Well no.=1744,103%
same,remaining activity at 1.25 µM,[2]; Well no.=1744,101%
O=C(O)C1CCNCC1 [Isonipecotic acid],remaining activity at 3.75 µM,[1]; Well no.=1067,96.7%
same,remaining activity at 1.25 µM,[2]; Well no.=1067,92.8%
C=C[C@@]1(C)CC[C@H]2C(=CC[C@@H]3[C@]2(C)CCC[C@@]3(C)C(=O)O)C1 [Isopimaric Acid],remaining activity at 3.75 µM,[1]; Well no.=5672,93.1%
same,remaining activity at 1.25 µM,[2]; Well no.=5672,94.1%
